Data on four molecules can be found in patent US20170334899A1, “AMINO-SUBSTITUTED ISOTHIAZOLES” (Bayer Pharma Aktiengesellschaft, priority 2014, published 2017).

What all share (format): cell-based
Experiment [1] deals with human cervical tumor cell line HeLa (ATCC CCL-2). The experiment can be described thus: SAC-Formation - Nocodazole-Induced Assay. Conditions: Homo sapiens, HeLa, 24 h, HeLa cells, nocodazole 0.1 μg/ml together with test compound, decrease of mitotic cells (phospho-histone H3 Ser10). A digest of the protocol:
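Loss of phospho-histone H3 Ser10-positive cells, counted against Hoechst-stained nuclei by high-content imaging, marked mitotic breakthrough. Compounds (0.005–20 μM, 0.5% DMSO) were co-dosed with 0.1 μg/ml nocodazole onto HeLa cells for 24 h at 37 °C. Curves were fitted with a four-parameter Hill equation.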

The next experiment has as its system HeLa-MaTu-ADR. The experiment can be described thus: Proliferation assay (crystal violet), HeLa-MaTu-ADR. Conditions: 96 h; HeLa-MaTu-ADR cells; 4 days incubation; crystal violet staining; read-out: IC50 inhibition of proliferation, HeLa-MaTu-ADR. How it is done:
(§1) Cultivated tumor cells (cells were ordered from ATCC, except HeLa-MaTu and HeLa-MaTu-ADR, which were ordered from EPO-GmbH, Berlin) were plated at a density of 1000 to 5000 cells/well, depending on the growth rate of the respective cell line, in a 96-well multititer plate in 200 μL of their respective growth medium supplemented 10% fetal calf serum. After 24 hours, the cells of one plate (zero-point plate) were stained with crystal violet (see below), while the medium of the other plates was replaced by fresh culture medium (200 μl), to which the test substances were added in various concentrations (0 μM, as well as in the range of 0.001-10 μM; the final concentration of the solvent dimethyl sulfoxide was 0.5%). The cells were incubated for 4 days in the presence of test substances. Cell proliferation was determined by staining the cells with crystal violet: the cells were fixed by adding 20 μl/measuring point of an 11% glutaric aldehyde solution for 15 minutes at room temperature. After three washing cycles of the fixed cells with water, the plates were dried at room temperature. The cells were stained by adding 100 μl/measuring point of a 0.1% crystal violet solution (pH 3.0). After three washing cycles of the stained cells with water, the plates were dried at room temperature. The dye was dissolved by adding 100 μl/measuring point of a 10% acetic acid solution. Absorbtion was determined by photometry at a wavelength of 595 nm. The change of cell number, in percent, was calculated by normalization of the measured values to the aborbtion values of the zero-point plate (=0%) and the absorbtion of the untreated (0 μm) cells (=100%). The IC50 values were determined by means of a 4 parameter fit.

The subject of another experiment is NCI-H460. The experiment can be described thus: Proliferation assay (crystal violet), NCI-H460. Particulars: Homo sapiens, 96 h; NCI-H460 cells; 4 days incubation; crystal violet staining; read-out: IC50 inhibition of proliferation, NCI-H460. How it is done:
as §1

A further experiment relates to DU145. In words: Proliferation assay (crystal violet), DU145. Particulars: Homo sapiens, DU-145, 96 h; DU145 cells; 4 days incubation; crystal violet staining; read-out: IC50 inhibition of proliferation, DU145. As to the method:
as §1

In the next experiment the test system is Caco-2. In words: Proliferation assay (crystal violet), Caco-2. Conditions: Homo sapiens, 96 h; Caco-2 cells; 4 days incubation; crystal violet staining; read-out: IC50 inhibition of proliferation, Caco2. As to the method: as §1
The subject of the next experiment is B16F10. The experiment can be described thus: Proliferation assay (crystal violet), B16F10. Conditions: Mus musculus, B16-F10, 96 h; B16F10 cells; 4 days incubation; crystal violet staining; read-out: IC50 inhibition of proliferation, B16F10. As to the method: as §1

On to `Cc1nsc(Nc2ccc(C#N)cn2)c1C(=O)Nc1ccc(C(=O)OC(C)(C)C)cc1` [Example 98, tert-Butyl 4-[({5-[(5-cyanopyridin-2-yl)amino]-3-methyl-1,2-thiazol-4-yl}carbonyl)-amino]benzoate], for which the IC50 in experiment [1] was 3.8 nM; with HeLa-MaTu-ADR it was 150 nM; in the experiment on NCI-H460 it was 170 nM; with DU145 it was 460 nM; in the experiment on Caco-2, 110 nM; with B16F10, 460 nM.
Regarding `Cc1nsc(Nc2cnc(C(F)(F)F)cn2)c1C(=O)Nc1ccc(C(=O)OC(C)(C)C)cc1` [Example 96, tert-Butyl 4-{[(3-methyl-5-{[5-(trifluoromethyl)pyrazin-2-yl]amino}-1,2-thiazol-4-yl)carbonyl]amino}benzoate], the IC50 came to 1.8 nM in experiment [1]; 410 nM in the experiment with HeLa-MaTu-ADR; 740 nM in the experiment on NCI-H460; 800 nM in the experiment on DU145; 330 nM with Caco-2; 1100 nM in the experiment with B16F10.
As for `Cc1nsc(Nc2ccc(C#N)cn2)c1C(=O)Nc1ccc(Oc2cccc(C(F)(F)F)c2)nc1` [Example 118, 5-[(5-Cyanopyridin-2-yl)amino]-3-methyl-N-{6-[3-(trifluoromethyl)phenoxy]pyridin-3-yl}-1,2-thiazole-4-carboxamide], the IC50 in experiment [1] is 110 nM; with HeLa-MaTu-ADR it was 320 nM; with NCI-H460 it was 480 nM; in the experiment on DU145, 750 nM; with Caco-2, 340 nM; in the experiment on B16F10 it was 380 nM.
Turning to `Cc1nsc(Nc2cnc3ccccc3n2)c1C(=O)Nc1cccc(-c2nc(C(C)(C)C)no2)c1` [Example 108, N-[3-(3-tert-Butyl-1,2,4-oxadiazol-5-yl)phenyl]-3-methyl-5-(quinoxalin-2-ylamino)-1,2-thiazole-4-carboxamide], the IC50 in experiment [1] stood at 19 nM; in the experiment on HeLa-MaTu-ADR it was 330 nM; with NCI-H460 it was 290 nM; in the experiment on DU145, 570 nM; with Caco-2, 300 nM; with B16F10, 700 nM.
